Source: patent US7674596B2 (priority 2005, dated 2010)
Entries after “also recorded” stand apart in the source; their conditions may differ.

Columns and labels:
Assay type in all cases: cell-based
[1] = target: T1, human potassium channel Kir2.1 (Homo sapiens, UniProt P63252); assay: Whole-cell ruptured patch-clamp recording of inwardly rectifying potassium (IRK) current in clone #30; design: dose or concentration left out as unconfirmed; conditions: Ba^2+, voltage clamp
T1 construct: expressed in transfected cells; host or cells: HEK293 stably expressing human T-type α1H; clone #30 (HEK293-TChH-IRK2.1, KCTC 10780BP)
T1 sequence (P63252 1-427): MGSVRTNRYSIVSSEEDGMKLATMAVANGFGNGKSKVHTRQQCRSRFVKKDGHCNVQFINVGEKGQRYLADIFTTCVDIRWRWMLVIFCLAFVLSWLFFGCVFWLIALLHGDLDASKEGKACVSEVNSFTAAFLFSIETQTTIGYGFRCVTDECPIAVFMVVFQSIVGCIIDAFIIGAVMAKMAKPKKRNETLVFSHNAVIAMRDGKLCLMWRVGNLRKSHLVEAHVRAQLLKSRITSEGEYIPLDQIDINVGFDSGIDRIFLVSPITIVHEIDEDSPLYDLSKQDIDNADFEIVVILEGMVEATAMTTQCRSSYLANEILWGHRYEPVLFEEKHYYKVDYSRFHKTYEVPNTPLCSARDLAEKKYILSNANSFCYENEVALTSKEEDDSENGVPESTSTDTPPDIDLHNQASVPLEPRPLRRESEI
Description: (§1) The procedures and conditions of the experiment were as follows. The T-type calcium current and inwardly rectifying potassium current (referred as “IRK current” hereinafter) were recorded by the whole-cell ruptured patch-clamp method (Hamil et al., Pflugers Arch., 391:85-100, 198; Jeong and Ikeda, Neuron, 21:1201-1212, 1998), a voltage clamp technique, to confirm which clone could best express the human T-type α1H channel and human potassium channel Kir2.1. In the meantime, the resting membrane potential of the clones that were confirmed by the measurement of calcium and potassium currents was monitored by the gramicidin-perforated current-clamp method (Akaike, Prog. Biophys. Mol. Biol., 65:251-264, 1997).
(§2) The patch electrode used in the measurement above was prepared with a borosilicate glass tube (Corning, USA) by a P-97 flaming brown micro-pipette puller (Sutter Instrument, USA). […] The cell capacitance and series resistance were adjusted to more than 80% by using Axopatch-1D (Axon Instruments, USA) or EPC-10 amplifier (HEKA, Germany). S4 (prepared by Dr. Stephen R. Ikeda, USA) using ITC18 (Instrutech, USA) or Pulse (HEKA, Germany) was used for the generation and data collection of the voltage-stimulating protocol. […] The results were recorded in a computer. […]
(§3) The T-type α1H channel current, activated at −50 mV and showing maximum activity at −30 mV, was recorded as well. […]

[2] = target: T1, human potassium channel Kir2.1; assay: Gramicidin-perforated current-clamp measurement of membrane potential of clone #30; conditions: 100 μM barium
Description: as §1, §2, §3

[3] = target: T2, T-type α1H channel (Homo sapiens, UniProt O95180); assay: Fluo-3 fluorescent calcium imaging (cooled CCD) in clone #30 cells (HEK293-TChH-IRK2.1); conditions: for increase of intracellular calcium signal (fluorescent image) upon KCl depolarization: 60 mM KCl
T2 construct: expressed in transfected cells; clone #30, KCTC 10780BP
Description: (§4) Intracellular calcium concentrations were measured by the ratio fluorescence system (Ratiomaster, Photon Technology International, USA) installed on a fluorescent microscope (Nikon TE2000, Japan) as well as CoolSNAP CCD imaging system (Loafer Scientific, USA). Particularly, Fura-2/AM or Fluo-3 (Molecular Probes, USA) was added up to 5 μM to cells cultured on a cover slip, followed by loading at room temperature for 30-60 minutes with the light blocked. After the loading, the cells were washed twice with an extracellular flushing medium, and then the cover slip, on which the cells were stuck, was put on a perfusion chamber on the microscope. In the case of Fura-2/AM, the changes in the intracellular calcium (Ca^2+) concentration were measured using a photomultiplier (PM) tube in the ratio of fluorescence (F340/F380 t) emitted at 510 nm when 340 nm and 380 nm were used for excitation respectively. When Fluo-3 was used, fluorescent ratios were not measured but the fluorescent image emitted at 525 nm was recorded and captured by a cooled CCD, which was then analyzed by the Metaimage 6.1 program (Imaging Corporation, USA).
To measure fluorescent calcium image, Fluo-3 was loaded to clone #30 cells.

[4] = target: T2, T-type α1H channel; assay: Fura-2/AM ratio fluorescence (F340/F380) calcium assay in single cell of clone #30 (HEK293-TChH-IRK2.1) depolarized by KCl; conditions: depolarization by 60 mM KCl, pre-treatment with mibefradil (3 μM elsewhere in the source)
Description: as §4

T2 sequence (O95180 whole entry): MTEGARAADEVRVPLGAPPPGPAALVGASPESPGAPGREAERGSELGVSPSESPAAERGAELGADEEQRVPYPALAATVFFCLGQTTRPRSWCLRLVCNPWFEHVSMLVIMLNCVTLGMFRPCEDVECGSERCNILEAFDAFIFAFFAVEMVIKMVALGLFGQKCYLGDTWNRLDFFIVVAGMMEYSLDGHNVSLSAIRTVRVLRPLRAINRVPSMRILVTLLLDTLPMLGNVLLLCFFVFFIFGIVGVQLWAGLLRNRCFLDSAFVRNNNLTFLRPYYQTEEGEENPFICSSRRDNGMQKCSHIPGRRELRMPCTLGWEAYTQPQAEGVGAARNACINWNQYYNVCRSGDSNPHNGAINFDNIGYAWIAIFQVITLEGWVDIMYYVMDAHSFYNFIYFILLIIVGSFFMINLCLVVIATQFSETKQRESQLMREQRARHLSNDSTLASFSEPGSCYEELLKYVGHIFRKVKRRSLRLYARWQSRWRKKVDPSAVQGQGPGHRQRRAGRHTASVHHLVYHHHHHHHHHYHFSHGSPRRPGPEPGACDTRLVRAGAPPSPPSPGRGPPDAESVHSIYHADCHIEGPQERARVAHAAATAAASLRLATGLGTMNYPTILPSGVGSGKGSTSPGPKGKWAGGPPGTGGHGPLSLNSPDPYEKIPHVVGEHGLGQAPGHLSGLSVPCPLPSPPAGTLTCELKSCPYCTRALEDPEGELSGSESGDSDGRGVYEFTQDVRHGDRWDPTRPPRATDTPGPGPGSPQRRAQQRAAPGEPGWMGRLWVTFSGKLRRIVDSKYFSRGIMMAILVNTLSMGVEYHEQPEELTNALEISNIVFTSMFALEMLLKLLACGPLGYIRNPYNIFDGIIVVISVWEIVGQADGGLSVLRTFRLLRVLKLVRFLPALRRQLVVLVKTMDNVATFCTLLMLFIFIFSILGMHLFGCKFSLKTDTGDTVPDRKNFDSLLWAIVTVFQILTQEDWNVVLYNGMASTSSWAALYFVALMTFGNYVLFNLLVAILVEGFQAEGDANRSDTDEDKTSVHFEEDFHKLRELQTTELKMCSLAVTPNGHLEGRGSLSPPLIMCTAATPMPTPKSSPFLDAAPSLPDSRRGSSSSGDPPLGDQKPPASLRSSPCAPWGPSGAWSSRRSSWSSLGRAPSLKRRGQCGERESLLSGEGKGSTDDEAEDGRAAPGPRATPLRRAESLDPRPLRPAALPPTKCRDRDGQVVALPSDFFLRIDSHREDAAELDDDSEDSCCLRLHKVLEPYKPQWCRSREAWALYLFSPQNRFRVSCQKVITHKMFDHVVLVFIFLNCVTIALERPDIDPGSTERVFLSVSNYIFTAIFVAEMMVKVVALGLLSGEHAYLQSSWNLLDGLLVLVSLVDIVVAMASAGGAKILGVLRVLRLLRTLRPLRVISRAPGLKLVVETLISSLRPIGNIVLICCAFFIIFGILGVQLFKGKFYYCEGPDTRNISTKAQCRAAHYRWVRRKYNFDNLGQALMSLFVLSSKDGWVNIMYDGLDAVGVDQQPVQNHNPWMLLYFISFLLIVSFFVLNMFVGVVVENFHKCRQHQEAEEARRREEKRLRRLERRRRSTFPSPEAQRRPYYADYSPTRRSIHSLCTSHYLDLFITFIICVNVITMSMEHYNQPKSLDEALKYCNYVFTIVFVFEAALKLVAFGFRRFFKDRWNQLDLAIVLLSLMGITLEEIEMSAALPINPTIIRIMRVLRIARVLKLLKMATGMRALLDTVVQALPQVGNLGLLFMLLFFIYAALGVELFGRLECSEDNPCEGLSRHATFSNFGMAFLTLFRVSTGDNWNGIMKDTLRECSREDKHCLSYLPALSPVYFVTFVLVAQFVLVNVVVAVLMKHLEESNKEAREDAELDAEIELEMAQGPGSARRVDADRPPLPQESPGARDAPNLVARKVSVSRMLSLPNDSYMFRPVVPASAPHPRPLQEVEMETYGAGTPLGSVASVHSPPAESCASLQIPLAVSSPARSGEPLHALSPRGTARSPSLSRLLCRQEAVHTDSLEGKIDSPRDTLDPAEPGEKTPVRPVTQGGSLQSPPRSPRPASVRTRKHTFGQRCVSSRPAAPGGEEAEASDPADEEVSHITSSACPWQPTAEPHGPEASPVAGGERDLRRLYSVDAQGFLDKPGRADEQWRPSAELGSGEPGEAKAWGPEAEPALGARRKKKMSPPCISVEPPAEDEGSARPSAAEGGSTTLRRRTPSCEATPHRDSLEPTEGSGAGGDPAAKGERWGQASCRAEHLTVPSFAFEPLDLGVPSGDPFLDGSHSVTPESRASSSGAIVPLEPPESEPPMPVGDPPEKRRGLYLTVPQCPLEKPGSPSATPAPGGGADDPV

SMILES: [Ba+2] [Ba^2+, barium]
- IRK current [1]: blocked
- membrane potential response [2]: Ca^2+ spikes or action potentials were induced with depolarization

SMILES: [Ni+2] [Ni^2+, nickel (Ni^2+)]
- increase of intracellular calcium signal (fluorescent image) upon KCl depolarization ([3]; pre-treatment with 100 μM nickel): completely inhibited
- increase of intracellular calcium signal (fluorescent image) upon KCl depolarization ([3]; pre-treatment with 100 mM Ni^2+): completely inhibited

SMILES: COCC(=O)O[C@]1(CCN(C)CCCc2nc3ccccc3[nH]2)CCc2cc(F)ccc2[C@@H]1C(C)C [mibefradil]
- increase of intracellular calcium signal (fluorescent image) upon KCl depolarization ([3]; pre-treatment with mibefradil (3 μM elsewhere in the source)): completely inhibited; also recorded: completely blocked
- intracellular calcium level at non-depolarized resting phase (number of red cells) ([3]; no KCl, mibefradil (3 μM elsewhere in the source)): reduced remarkably; also recorded: remarkably reduced
- increase in intracellular calcium (F340/F380 ratio) by influx through T-type α1H channels [4]: completely blocked; also recorded: completely inhibited
